The values below come from ChEMBL document CHEMBL5050844 (2019).

In general, pIC50 refers to the IC50 on a negative log10 scale, so that one unit is a factor of ten. A lower pIC50 goes with a large IC50. By pKd is commonly meant −log10 of the Kd, conventionally taken in molar units. The low end stands for a large Kd, the high end for a small Kd.

Experiment [1] has as its target T1, E3 ubiquitin-protein ligase CBL-B (Homo sapiens, UniProt Q13191). Put plainly: Inhibition of N-terminal Avi-tagged human CBL-B (36 to 427 residues) incubated with 60 nM Src kinase for 1.5 hrs followed by incubation with fluorescently labeled UbcH5B-Ub for 1 hr and measured by TR-FRET assay. It counts as single protein. In general terms: TR-FRET usually uses a lanthanide donor and a delayed reading to cut background.

Experiment [2] has as its target T1, E3 ubiquitin-protein ligase CBL-B. Put plainly: Binding affinity towards N-terminal biotinylated Avi-tagged human CBL-B (36 to 427 residues) measured by surface plasmon resonance assay.
Experiment [3] is described as follows: Induction of anti-CD3/CD28 antibodies-stimulated human T cell activation at 1 uM assessed fold increase in IL-2 secretion measured by ELISA assay. It counts as functional, T cell line. For orientation: An ELISA detects its analyte on a solid surface through an enzyme-linked reagent.
Experiment [4] is described as follows: Induction of anti-CD3/CD28 antibodies-stimulated human CD4+ T cell activation at 1.11 uM assessed fold increase in CD69 expression measured by flow cytometry analysis. Format: functional, T cell line.
Experiment [5] is described as follows: Induction of anti-CD3/CD28 antibodies-stimulated human CD8+ T cell activation at 10 uM assessed fold increase in CD69 expression measured by flow cytometry analysis. Format: functional, T cell line. (In general: A flow cytometer gives signals particle by particle.)
Experiment [6] in a line: Induction of anti-CD3 antibodies-stimulated human CD8+ T cell activation at 10 uM assessed fold increase in cell proliferation measured by flow cytometry analysis. Further: reference of the scale not given here. Format: functional, T cell line.
A short description of experiment [7]: Induction of anti-CD3 antibodies-stimulated human CD8+ T cell activation at 1.11 uM assessed fold increase in cell proliferation measured by flow cytometry analysis. Further: reference of the scale not given here. Format: functional, T cell line.
Experiment [8] can be described thus: Induction of anti-CD3/CD28 antibodies-stimulated human T cell activation at 1.11 uM assessed fold increase in GM-CSF secretion measured by ELISA assay. It counts as functional, T cell line.
Experiment [9] in a line: Induction of anti-CD3/CD28 antibodies-stimulated human T cell activation at 10 uM assessed fold increase in TNF-alpha secretion measured by ELISA assay. Format: functional, T cell line.
Experiment [10] in a line: Induction of anti-CD3/CD28 antibodies-stimulated human T cell activation at 1.11 uM assessed fold increase in TNF-alpha secretion measured by ELISA assay. Format: functional, T cell line.
Experiment [11] is described as follows: Induction of anti-CD3 antibodies-stimulated human T cell activation at 10 uM assessed fold increase in TNF-alpha secretion measured by ELISA assay. Further: reference of the scale not given here. Format: functional, T cell line.
The nature of experiment [12]: Induction of anti-CD3 antibodies-stimulated human T cell activation at 1.11 uM assessed fold increase in TNF-alpha secretion measured by ELISA assay. Further: reference of the scale not given here. It counts as functional, T cell line.
A short description of experiment [13]: Induction of anti-CD3 antibodies-stimulated human exhausted CD8+ T cell activation assessed fold increase in CTLA4 expression measured by flow cytometry analysis. Further: reference of the scale not given here. It counts as functional, T cell line.
Experiment [14] in a line: Induction of anti-CD3/CD28 antibodies-stimulated human anergic T cell activation at 0.37 uM assessed fold increase in IFN-gamma secretion measured by ELISA assay. It counts as functional, T cell line.
The nature of experiment [15]: Induction of activation of human CD56+ CD3- NK cells co-cultured with human K562 cells in 1:1 ratio and assessed as increase in TNF-alpha secretion at 10 uM measured by ELISA assay. It counts as functional, Natural killer cell.
Experiment [16] is described as follows: Induction of activation of human CD56+ CD3- NK cells co-cultured with human K562 cells in 1:1 ratio and assessed as increase in IFN-gamma secretion at 2.5 uM measured by ELISA assay. Format: functional, Natural killer cell.

pIC50, pKd: −log10 of the molar value.

T1 sequence (Q13191 whole entry, the tested form may be a part): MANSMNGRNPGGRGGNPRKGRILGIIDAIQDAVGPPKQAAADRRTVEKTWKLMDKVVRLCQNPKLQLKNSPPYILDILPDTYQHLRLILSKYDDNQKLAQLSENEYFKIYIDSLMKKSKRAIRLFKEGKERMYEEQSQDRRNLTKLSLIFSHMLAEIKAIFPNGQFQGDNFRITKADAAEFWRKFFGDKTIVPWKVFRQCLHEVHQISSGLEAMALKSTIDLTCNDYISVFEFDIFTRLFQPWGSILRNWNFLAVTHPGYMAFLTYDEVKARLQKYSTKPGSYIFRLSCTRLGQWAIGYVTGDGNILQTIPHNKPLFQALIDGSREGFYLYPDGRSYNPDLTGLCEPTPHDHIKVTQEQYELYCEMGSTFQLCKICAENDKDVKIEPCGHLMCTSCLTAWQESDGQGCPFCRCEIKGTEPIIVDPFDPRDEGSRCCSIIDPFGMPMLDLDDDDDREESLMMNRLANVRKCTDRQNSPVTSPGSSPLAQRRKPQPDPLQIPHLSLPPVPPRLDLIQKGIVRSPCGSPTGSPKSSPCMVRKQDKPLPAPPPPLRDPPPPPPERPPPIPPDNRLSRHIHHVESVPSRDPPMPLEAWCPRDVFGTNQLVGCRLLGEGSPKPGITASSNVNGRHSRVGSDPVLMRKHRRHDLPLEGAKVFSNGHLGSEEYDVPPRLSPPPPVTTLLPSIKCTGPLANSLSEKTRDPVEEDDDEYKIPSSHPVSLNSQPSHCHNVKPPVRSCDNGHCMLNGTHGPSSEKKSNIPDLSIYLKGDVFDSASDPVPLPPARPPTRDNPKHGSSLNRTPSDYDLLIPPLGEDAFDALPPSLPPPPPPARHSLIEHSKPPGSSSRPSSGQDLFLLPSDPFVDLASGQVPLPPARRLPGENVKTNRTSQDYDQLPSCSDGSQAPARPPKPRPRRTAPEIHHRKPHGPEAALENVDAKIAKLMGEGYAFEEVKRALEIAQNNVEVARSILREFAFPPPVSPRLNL

In experiment [1], `Cn1cnnc1C(F)(F)C(C)(F)c1cccc(N2Cc3c(cc(CN4CC[C@@H](F)C4)cc3C(F)(F)F)C2=O)c1` (single isomer, unassigned) had a pIC50 above 7.00. The negative logarithm of the Kd (pKd) in [2] was above 7.00. The “fold change (FC)” value is listed as “>=7.5” in experiment [3]; 1.201 in experiment [4]; 1.201 in [5]; above 4 in experiment [6]; above 4 in experiment [7]; 2.01 in [8]. For the same molecule, the “fold change (FC)” value in [9] is 2.01; in [10], 2.01; in experiment [11], 1.51; in experiment [12], 1.51; in experiment [13], above 1.61; in [14], 2.51. Also, the “fold change (FC)” value was “>=5” in [15] and 2.01 in experiment [16].

For `C[C@H](Cc1nncn1C)c1cccc(NC(=O)c2cc3cc(N4CCNCC4)ccc3cn2)c1.Cl`, the negative-log IC50 (pIC50) in experiment [1] was above 7.00. In experiment [2], this molecule showed a pKd above 7.00. The “fold change (FC)” value in [3] is listed as 1.01; in experiment [4] it was 1.201; in experiment [5], 1.201; in [6], “<=2”; in [7], 2.01; in [8], 1.51. In addition, the “fold change (FC)” value is reported as 1.51 in experiment [9]; 1.51 in experiment [10]; “<=1.5” in experiment [11]; “<=1.5” in [12]; 1.41 in experiment [13]; “<=2.5” in [14]. The “fold change (FC)” value in [15] is listed as 1.01; in experiment [16] it was “<=1”.

The molecule `Cn1cnnc1CC1(c2cccc(NC(=O)c3nc4c(C(F)(F)F)cccc4[nH]3)c2)COC1` gave a negative logarithm of the IC50 (pIC50) in [1] above 7.00. In experiment [2], this molecule gave a pKd above 7.00. For the same molecule, the “fold change (FC)” value in experiment [3] was 5; in experiment [4], 1.401; in [5], 1.201; in experiment [6], above 4; in experiment [7] it was above 4; in experiment [8] it was 1.51. Besides, the “fold change (FC)” value in [9] is listed as 2.01; in [10], 1.51; in [11], 1.51; in experiment [12], 1.51; in [13], above 1.61; in [14] it was “<=2.5”. For the same molecule, the “fold change (FC)” value is 2.01 in [15] and 1.01 in experiment [16].

In experiment [1], `C[C@H](Cc1nncn1C)c1cccc(N2Cc3c(cc(CN4CC(C)(O)C4)cc3C(F)(F)F)C2=O)c1` had a negative logarithm of the IC50 (pIC50) above 7.00. In [2], this molecule showed a pKd above 7.00. Besides, the “fold change (FC)” value in [3] is given as “>=7.5”; in experiment [4], 1.401; in experiment [5], 1.201; in [6], above 4; in experiment [7], above 4; in [8], 2.01. In addition, the “fold change (FC)” value in experiment [9] is reported as 2.01; in experiment [10], 2.01; in experiment [11], 1.51; in [12], 1.51; in experiment [13], above 1.61; in experiment [14], “<=2.5”. Moreover, the “fold change (FC)” value in [15] and in [16] was 2.01 throughout.

The molecule `C[C@H](Cc1nncn1C)c1cccc(N2Cc3c(cc(CN4CC[C@](C)(O)C4)cc3C(F)(F)F)C2=O)c1` had a pIC50 in [1] above 7.00. This molecule had a pKd in [2] above 7.00. Also, the “fold change (FC)” value in experiment [3] was 5; in [4], 1.401; in experiment [5] it was 1.201; in experiment [6], above 4; in experiment [7], above 4; in experiment [8], 2.01. Moreover, the “fold change (FC)” value is reported as 2.01 in experiment [9]; 2.01 in experiment [10]; 2.01 in experiment [11]; “<=1.5” in experiment [12]; above 1.61 in [13]; “<=2.5” in experiment [14]. Besides, the “fold change (FC)” value in experiment [15] and in [16] was 2.01 in each case.

In experiment [1], `Cn1cnnc1C(F)(F)[C@](C)(F)c1cccc(N2Cc3c(cc(CN4CC[C@@H](C#N)C4)cc3C(F)(F)F)C2=O)c1` showed a pIC50 above 7.00. Also, the “fold change (FC)” value in experiment [3] is “>=7.5”; in experiment [4], 1.201; in experiment [5] it was 1.201; in experiment [6] it was above 4; in experiment [7], above 4; in [8], 2.01. In addition, the “fold change (FC)” value in experiment [9] was 2.01; in [10] it was 2.01; in experiment [11] it was 2.01; in experiment [12], “<=1.5”; in experiment [13], above 1.61; in [14], “<=2.5”. Besides, the “fold change (FC)” value in experiment [15] and in experiment [16] was “>=5” in each case.

In experiment [1], `Cn1cnnc1CC1(c2cccc(N3Cc4c(cc(CN5CC[C@H](C#N)C5)cc4C(F)(F)F)C3=O)c2)COC1` had a negative-log IC50 (pIC50) above 7.00. For the same molecule, the “fold change (FC)” value in [3] was “>=7.5”; in experiment [4], 1.201; in experiment [5], 1.201; in experiment [6], above 4; in [7], 3.01; in [8], 2.01. Besides, the “fold change (FC)” value in experiment [9] is 2.01; in [10], 2.01; in experiment [11] it was 1.51; in [12], “<=1.5”; in [13] it was above 1.61; in [14], “<=2.5”. The “fold change (FC)” value in experiment [15] turned out to be 2.01; in [16] it was 1.01.

On to `C[C@H](Cc1nncn1C)c1cccc(NC(=O)c2nc(C(F)(F)F)c[nH]2)c1`, for which the “fold change (FC)” value in experiment [3] is 2.51; in experiment [4], 1.201; in experiment [5], 1.201; in experiment [6], above 4; in [7] it was 2.01; in experiment [8] it was 1.51. Besides, the “fold change (FC)” value in experiment [9] is on record as 2.01; in experiment [10], “<=1.5”; in [11], 1.51; in [12] it was “<=1.5”; in [13], “<=1.4”; in experiment [14], “<=2.5”. The “fold change (FC)” value in experiment [15] amounted to 2.01; in experiment [16], 1.01.

Consider `C[C@H](Cc1nncn1C)c1cccc(N2Cc3c(ccnc3C3CC3)C2=O)c1`, for which the “fold change (FC)” value in [3] is recorded as 1.01; in [4], “<=1.2”; in [5], 1.201; in [6] it was 3.01; in [7], “<=2”; in [8], 2.01. For the same molecule, the “fold change (FC)” value in [9] is listed as 2.01; in [10], 1.51; in [11] it was “<=1.5”; in experiment [12], “<=1.5”; in [13], “<=1.4”; in [14], “<=2.5”. For the same molecule, the “fold change (FC)” value was 2.01 in [15] and 1.01 in [16].

Regarding `Cc1cc(C(=O)Nc2cccc([C@@H](C)Cc3nncn3C)c2)nc(C2CC2)n1`, the “fold change (FC)” value is 1.01 in [3]; 1.401 in experiment [4]; 1.201 in experiment [5]; above 4 in experiment [6]; 2.01 in experiment [7]; 1.51 in experiment [8]. Besides, the “fold change (FC)” value in [9] is 2.01; in experiment [10], “<=1.5”; in [11], “<=1.5”; in [12] it was “<=1.5”; in experiment [13] it was “<=1.4”; in experiment [14] it was “<=2.5”. Moreover, the “fold change (FC)” value in experiment [15] and in experiment [16] was 1.01 in each case.
